The results in this text go back to patent publication US5891896A, “Tri-substituted phenyl derivatives useful as PDE IV inhibitors” (Celltech Therapeutics Ltd., priority 1995, dated 1999).

Structures can show the parent of a compound that is named as a salt. Some results are limits rather than exact numbers.

One series deals with T1, human PDE IVA (Homo sapiens, UniProt P27815).
T1 construct: made in house; host or cells: yeast (inducible vector)
The series can be described thus: Isolated recombinant human PDE IVA enzyme, inhibition of phosphodiesterase activity ([3H]-cAMP). The conditions noted are these: 0.1 μM [3H]-cAMP, pH 7.5, 30° C. Format: biochemical. The text has this: 1. Isolated Recombinant Human PDE IVA Enzyme
A gene encoding human PDE IV has been cloned from human monocytes (Livi, et al., 1990, Molecular and Cellular Biology, 10, 2678). Using similar procedures we have cloned human PDE IV genes from a number of sources including eosinophils, neutrophils, lymphocytes, monocytes, brain and neuronal tissues. These genes have been transfected into yeast using an inducible vector and various recombinant proteins have been expressed which have the biochemical characteristics of PDE IV (Beavo and Reifsnyder, 1990, TIPS, 11, 150). These recombinant enzymes, particularly the human eosinophil recombinant PDE IVA, have been used as the basis of a screen for potent, selective PDE IV inhibitors.
The enzymes were purified to isoenzyme homogeneity using standard chromatographic techniques.
Phosphodiesterase activity was assayed as follows. The reaction was conducted in 150 μl of standard mixture containing (final concentrations): 50 mM 2-[[tris(hydroxymethyl)methyl]amino]-1-ethanesulphonic acid (TES) --NaOH buffer (pH 7.5), 10 mM MgCl2, 0.1 μM [^3 H]-cAMP and vehicle or various concentrations of the test compounds. […] Recovery of [^3 H]-5'AMP was determined using the [^14 C]-5'AMP and all assays were conducted in the linear range of the reaction. Results were expressed as IC50 values.

A further series has as its system rat hepatocytes. Put plainly: Rat hepatocyte metabolism (compound remaining, mass spectroscopy). The format is in vitro ADME. The method, then: (§1) 2. Rat Hepatocyte Metabolism
(§2) The quantity of compound remaining after a fixed period of time was then determined using mass spectroscopy.

Assay in series [1]: as above
The format is in vitro ADME. The conditions noted are these: rat hepatocytes, read-out: compound remaining at the end of the period. The method, then:
as §1, §2

T1 sequence (P27815 whole entry): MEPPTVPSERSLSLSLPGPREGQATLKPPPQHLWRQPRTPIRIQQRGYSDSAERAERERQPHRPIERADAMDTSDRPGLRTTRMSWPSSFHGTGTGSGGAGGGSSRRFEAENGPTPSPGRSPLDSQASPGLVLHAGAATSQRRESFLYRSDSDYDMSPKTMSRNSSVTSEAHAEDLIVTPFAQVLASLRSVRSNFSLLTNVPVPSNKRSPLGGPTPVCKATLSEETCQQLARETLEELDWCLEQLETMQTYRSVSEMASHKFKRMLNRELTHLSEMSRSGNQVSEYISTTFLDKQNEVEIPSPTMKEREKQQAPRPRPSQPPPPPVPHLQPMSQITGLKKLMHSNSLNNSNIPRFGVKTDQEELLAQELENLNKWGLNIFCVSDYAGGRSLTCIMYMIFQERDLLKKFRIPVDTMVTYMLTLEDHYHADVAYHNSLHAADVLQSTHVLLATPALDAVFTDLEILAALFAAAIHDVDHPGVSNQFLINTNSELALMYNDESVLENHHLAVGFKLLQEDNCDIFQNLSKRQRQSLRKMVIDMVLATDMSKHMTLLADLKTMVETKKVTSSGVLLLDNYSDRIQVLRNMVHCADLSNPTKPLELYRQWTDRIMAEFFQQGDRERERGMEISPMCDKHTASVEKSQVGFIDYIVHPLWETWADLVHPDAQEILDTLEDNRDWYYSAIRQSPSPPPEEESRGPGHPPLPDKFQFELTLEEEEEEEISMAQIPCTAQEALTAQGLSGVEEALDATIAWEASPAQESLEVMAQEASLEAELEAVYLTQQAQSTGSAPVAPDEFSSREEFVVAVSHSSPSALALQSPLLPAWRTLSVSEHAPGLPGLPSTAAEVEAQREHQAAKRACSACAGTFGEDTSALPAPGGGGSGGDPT

Usually IC50 stands for the concentration that gives 50% inhibition. In general, amount remaining refers to what is left of the initial amount, in per cent. Regarding `COc1ccc([C@H](Cc2ccncc2)c2cccc(NS(=O)(=O)c3ccccc3)c2)cc1OC1Cc2ccccc2C1` [Example 2, hydrochloride], at human PDE IVA, the IC50 came out at 2 nM. Besides, in the series on rat hepatocytes, the “metabolism after 3 h (in words)” value was “substantially unmetabolised”. For the same compound, the fraction remaining at 3 h in series [1] was at least 80%.

For “(R)-N-[4-{1-(3-(2-Indanyloxy)-4-methoxyphenyl)-2-(4-pyridyl)ethyl}phenyl]-N'-ethylurea hydrochloride [Example 3]”, the 50% inhibitory concentration (IC50) at human PDE IVA came to 34 nM. The “metabolism after 3 h (in words)” value with rat hepatocytes is listed as “substantially unmetabolised”. For the same compound, the “compound remaining at the end of the period” value in the series with rat hepatocytes (3 h) is listed as at least 80%.
